Measurements taken from patent US20130225611A1, “Compositions and Methods for Reducing Cancer Cell Proliferation and Modulating Importin-Beta Function” (THE REGENTS OF THE UNIVERSITY OF CALIFORNIA, priority 2011, published 2013).

Columns and labels:
[1] = target: T1, CFP-Ran and YFP-importin-β (Homo sapiens, UniProt Q14974); assay: pull-down of CFP-Ran with S-tagged YFP-importin-β; format: binding; conditions: importazole 200 μM
T1 construct: made in house; host or cells: BL21 cells (E. coli)
Procedure: For pulldown experiments to detect interaction between CFP-Ran and YFP-importin-β, all reactions were performed in buffer consisting of PBS+2 mM MgCl2, 5% glycerol, 0.01% NP-40, and 1.0 mM DTT. Reaction buffer was combined with the following components in this order: CFP-Ran, RCC1, BSA, GDP or GTP, importazole or 100% DMSO, and YFP-importin-β, yielding the following final concentrations: CFP-Ran: 2.5 nM, RCC1: 20 nM, BSA: 0.1 mg/ml, GDP or GTP: 200 μM, importazole: 200 μM, […]: 5.0 nM. Reactions were incubated for 10 min at room temperature, […] of S-protein agarose was added, and then incubated for an additional 30 min on a rotator before pelleting the agarose at 3,000 rpm for 1 min. The supernatant was removed followed by three washes with […] reaction buffer. The S-protein pellet was resuspended in 15 μl of sodium dodecyl sulfate-polyacrylamide gel electrophoresis (SDS PAGE) sample buffer and boiled briefly. After spinning down the S-protein pellet, 10 μl of the sample was analyzed by SDS PAGE.

importin-β = target: T2, importin-β (Homo sapiens, UniProt Q14974); assay: fluorescent thermal shift assay (Sypro Orange), importin-β; format: binding; conditions: 2 μM importin-β, 50 μM compound
T2 construct: made in house; host or cells: BL21 cells (E. coli)
Procedure: (§1) Experiments were performed using Applied Biosystems StepOnePlus™ Real-Time polymerase chain reaction (RT-PCR) System. Protein stocks were diluted in PBS and added 70% v/v to a Microamp® Fast 96-well Reaction Plate and maintained on ice. Compounds (importazole and control compound 3016) were then added at 30% v/v in 3% DMSO. Freshly prepared 100× water based-dilution of Sypro® Orange Protein Gel Stain was then added at 1% v/v to reach a final reaction volume of 20 μl. Samples were mixed by gentle pipetting. After sealing the plates with Microamp™ Optical Adhesive Film, the plate was subjected to a heating cycle composed of a 10 sec prewarming step at 25° C. and a gradient between 25° C. and 95° C. with a 0.3° C. ramp. Data was analyzed using the StepOnePlus™ Software v2.1.

RanGTP = target: T3, RanGTP (Homo sapiens, UniProt P62826, Q69L); assay: fluorescent thermal shift assay (Sypro Orange), RanGTP (RanQ69L); format: binding; conditions: 2 μM RanQ69L, 50 μM importazole
T3 construct: made in house; host or cells: SG13 cells (E. coli)
Procedure: as §1

[2] = system: spindle assembly around sperm chromosomes; assay: spindle assembly in metaphase-arrested Xenopus egg extracts; set-up: species or system Xenopus laevis; conditions: 100 μM importazole
Text: In order to determine whether importazole also disrupts mitosis, importazole was first tested in metaphase-arrested Xenopus egg extracts, which rely heavily on a RanGTP gradient for spindle assembly around sperm chromosomes. […] The effect was similar to that of adding a truncated importin-β (amino acids 71-876), a version that no longer binds to RanGTP and therefore sequesters its cargoes. […] Thus, importazole caused dramatic effects on spindle assembly consistent with the known role of the importin-β/RanGTP pathway in the Xenopus egg extract system, and is not a general microtubule inhibitor.
Xenopus laevis egg extracts were prepared as described by Hannak et al. (2006) Nat. Protoc. 1:2305-2314. For in vitro spindle assembly, Xenopus laevis sperm DNA was added to egg extracts supplemented with rhodamine-labeled tubulin. Asters were formed by addition of 5% DMSO. DNA was stained with Hoechst dye. The formation of microtubule-based structures was assessed using epifluorescence microscopy after a 30-minute room temperature incubation. In vitro microtubule polymerization and pelleting assays were performed by incubating 25 μM bovine tubulin, 1 mM GTP, and 5% DMSO in BRB80 buffer (80 mM PIPES, 1 mM MgCl2, 1 mM EGTA, pH 6.8) at 37° C. for 30 minutes. Polymerized microtubules were pelleted through a sucrose cushion, resuspended, and analyzed by SDS PAGE.

T2 sequence (Q14974 whole entry): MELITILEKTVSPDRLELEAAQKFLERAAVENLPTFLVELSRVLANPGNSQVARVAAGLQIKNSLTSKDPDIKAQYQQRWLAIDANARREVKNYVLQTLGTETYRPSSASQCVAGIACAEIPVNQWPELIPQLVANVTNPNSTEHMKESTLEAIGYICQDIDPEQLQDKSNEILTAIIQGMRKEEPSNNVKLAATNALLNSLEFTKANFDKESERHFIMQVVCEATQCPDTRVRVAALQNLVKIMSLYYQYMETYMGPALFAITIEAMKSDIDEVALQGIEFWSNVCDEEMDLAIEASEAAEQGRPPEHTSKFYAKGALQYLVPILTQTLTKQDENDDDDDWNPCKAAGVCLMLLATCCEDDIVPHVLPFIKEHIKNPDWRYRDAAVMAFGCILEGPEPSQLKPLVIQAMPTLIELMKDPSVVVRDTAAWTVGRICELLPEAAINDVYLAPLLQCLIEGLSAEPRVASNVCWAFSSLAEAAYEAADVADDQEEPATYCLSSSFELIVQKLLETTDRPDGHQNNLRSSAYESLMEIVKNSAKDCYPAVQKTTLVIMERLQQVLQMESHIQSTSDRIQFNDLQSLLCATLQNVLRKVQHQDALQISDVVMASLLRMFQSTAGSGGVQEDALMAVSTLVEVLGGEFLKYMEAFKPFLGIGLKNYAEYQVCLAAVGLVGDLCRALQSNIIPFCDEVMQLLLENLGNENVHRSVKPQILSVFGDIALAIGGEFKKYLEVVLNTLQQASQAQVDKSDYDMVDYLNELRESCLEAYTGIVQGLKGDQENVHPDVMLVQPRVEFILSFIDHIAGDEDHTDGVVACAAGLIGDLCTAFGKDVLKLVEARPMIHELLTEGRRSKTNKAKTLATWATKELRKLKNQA

CC(Nc1nc(N2CCCC2)nc2ccccc12)c1ccccc1 (stereo not shown) [importazole, (1-phenyl-ethyl)-(2-pyrrolidin-1-yl-quinazolin-4-yl)-amine]
effect on binding of CFP-RanGTP and YFP-importin-β in pull-down assays [1]: did not obviously affect the binding of the two proteins
reduction of melting temperature of importin-β (importin-β): 1.72+/−0.27 °C
effect on melting curve of RanGTP (RanGTP): did not significantly affect the melting curves
sperm nuclei at which normal bipolar microtubule structures were prevented from forming [2]: 80%
